We go through two compounds from ChEMBL document CHEMBL4665710, “Myrcaulones A-C, Unusual Rearranged Triketone-Terpene Adducts from Myrciariacauliflora” (J Nat Prod, 2020).

The source made the active and inactive calls. No cut-off for these calls is given here.

Data set [1] relates to RAW264.7. The data set can be described thus: Anti-inflammatory activity in mouse RAW 264.7 cells assessed as reduction in LPS-induced TNF-alpha production preincubated for 2 hrs followed by LPS-stimulation measured after 24 hrs by ELISA. As to conditions: time 26.0 hrs. The data set is classed as functional, cell-based.
In data set [2] the test system is RAW264.7. The data set can be described thus: Cytotoxicity against mouse RAW 264.7 cells assessed as reduction in cell viability by MTT assay. The class given is cell-based.
Data set [3] concerns RAW264.7. Description: Anti-inflammatory activity in mouse RAW 264.7 cells assessed as reduction in LPS-induced nitric oxide production at 7 uM preincubated for 2 hrs followed by LPS-stimulation measured after 24 hrs by Griess reagent method. The class given is functional, cell-based. As to conditions: time 26.0 hrs.
Data set [4] relates to RAW264.7. The data set can be described thus: Anti-inflammatory activity in mouse RAW 264.7 cells assessed as reduction in LPS-induced TNF-alpha production at 7 uM preincubated for 2 hrs followed by LPS-stimulation measured after 24 hrs by ELISA. The class given is functional, cell-based. To be noted: time 26.0 hrs.
Data set [5] has as its system RAW264.7. Description: Anti-inflammatory activity in mouse RAW 264.7 cells assessed as reduction in LPS-induced nitric oxide production preincubated for 2 hrs followed by LPS-stimulation measured after 24 hrs by Griess reagent method. As to conditions: time 26.0 hrs. The data set is classed as functional, cell-based.

On to `CO[C@@]1(C(C)=O)CC2=C(C1=O)[C@H](C(C)C)C[C@@]1(CC[C@H]3C[C@@H]1C3(C)C)O2`, for which the Activity result with RAW264.7 [1] was “Dose-dependent effect”; in the data set on RAW264.7 [2], “Non-Toxic”; with RAW264.7 [5], “Dose-dependent effect”. Further, the outcome in the data set on RAW264.7 [3] and in the data set on RAW264.7 [4] was Active.
In the case of `CC[C@H](C)[C@H]1C[C@@]2(CC[C@H]3C[C@@H]2C3(C)C)OC2=C1C(=O)[C@](OC)(C(C)=O)C2`, the values for the Activity entry in the data set on RAW264.7 [1], in the data set with RAW264.7 [2] and with RAW264.7 [5] were “Dose-dependent effect”, “Non-Toxic” and “Dose-dependent effect”, respectively. The outcome in the data set on RAW264.7 [3] and in the data set with RAW264.7 [4] was Active.
